Experimental data reported in patent US20250222028A1, “ENGINEERED IMMUNE CELL PLATFORM” (Cancer Research Technology Limited, priority 2022, published 2025).

Legend:
EL-4 tumour cells = test: LDH cytotoxicity assay, OT-I CD8+ CTLs co-cultured with Ova peptide-pulsed EL-4 target cells; format: cell-based, murine; conditions: 1.25 mM BAPTA, LDH assay 3 h
Procedure: (§1) FIG. 1. L-type Cav channel agonists increase Gli1 expression and enhance specific cell killing by murine CD8+ CTLs. CD8^+ T cells were isolated from the spleen and inguinal lymph nodes of Rag2^−/− OT-I mice, and CTLs were generated. (A) Cells were restimulated on day 9/10 for 3 hours using plate-bound anti-CD3ε in the presence of indicated concentrations of FPL 64176 or carrier control. RNA was extracted and Gli1 expression was assessed by qRT-PCR. Data is n=3 independent experiments. us=unstimulated cells. (B) An LDH cytotoxicity assay was performed using OT-I CTLs. On day 7, CTLs were co-cultured with Ova peptide-pulsed EL-4 cells in the presence of 10 μM FPL 64176 (squares) or carrier control (circles). Data is n=4 independent experiments. (C) Updated experiment of (A). Data is now n=4 independent experiments. Data is normalised to Tbp as a reference gene. 0h=unstimulated cells. (D) Same data as (B) represented differently. […] Error bars indicate SD. p values were calculated using an unpaired two-tailed Student's t test (C) or a two-way ANOVA (B/D). * indicates p<0.05, ** indicates p<0.01, **** indicates p<0.0001.
FIG. 11. […] (A) Quantitative analysis of live cell numbers. […] (E) Quantitative analysis of live cell numbers. […]
To ensure that the use of L-type Cav agonist is not adversely affecting immune cells, general cell functions were assessed. […]

Gli1 [1] = test: Gli1 expression by qRT-PCR in anti-CD3ε-stimulated murine CD8+ CTLs; format: cell-based; conditions: anti-CD3ε restimulation 6 hours
Procedure: as §1
FIG. 2. FPL 64176 but not (R)-Baclofen nor Nefiracetam enhance Gli1 expression in murine CD8+ CTLs. Naïve CD8^+ T cells were isolated from the spleens of OT-I Rag2^−/− mice and CTLs were generated. Cells were restimulated using an anti-CD3ε mAb in the presence indicated concentrations of (A) FPL 64176, (B) (R)-Baclofen or (C) Nefiracetam (or carrier control). CTLs were pre-incubated with the relevant pharmacological agents for 40-50 mins prior to stimulation (ensuring sufficient time for the agents, e.g., FPL 64176, to enter the cell. Gli1 expression was assessed by qRT-PCR. Data is n=2 independent experiments. Error bars indicate SD.
To investigate a potential role for L-type Cav channel agonists in modulating CD8+ CTL activation and effector function, CD8+ T cells were isolated from the spleen and inguinal lymph nodes of Rag2−/− OT-I mice and CTLs were generated. […] OT-I mice bear a transgene encoding for a TCR that recognises a chicken ovalbumin (Ova) peptide fragment. Rag2−/− OT-I mice facilitate the isolation of naïve CD8+ T cell populations. Plates were coated using 2.5 μg/mL anti-CD3ε mAb and CD8+ CTLs were stimulated for 3 hours via the TCR in the presence of 5 or 10 μM FPL 64176, an L-type Cav channel agonist, or carrier control. Note that CD8+ CTLs were pre-incubated with FPL 64176 or carrier control for 40-50 mins before stimulation. Gli1 expression was assessed using qRT-PCR.
In brief, naïve CD8+ T cells were isolated from the spleen and inguinal lymph nodes of C57BL/6 wildtype mice and CTLs were generated. […] RNA was extracted from cells and Gli1 expression was assessed by qRT-PCR. […]

GLI1 [2] = test: GLI1 expression by qRT-PCR in NK-92 cells; format: cell-based, human; conditions: stimulated with anti-NKp46 mAb 4 hours, 100 μM, vs carrier control
Procedure: FIG. 5. L-type Cav channel agonists increase GLI1 expression in the human NK cell line NK-92 and promote specific tumour cell killing. (A) NK-92 cells were stimulated using an anti-NKp46 mAb for 4 hours in the presence of 10 μM FPL 64176, and GLI1 expression was assessed using qRT-PCR. Data is n=4 independent experiments. (B) NK-92 cells were stimulated using an anti-NKp46 mAb for 4 hours in the presence of 100 μM Bay K8644, and GLI1 expression was assessed using qRT-PCR. Data is n=3 independent experiments. (C) An LDH assay was performed to assess specific cell killing of K562 target cells at indicated effector to target ratios in the presence of 10 μM FPL 64176 (right-hand columns) or carrier control (left-hand columns). Error bars indicate SD. Data is from n=3 independent experiments.
To investigate whether L-type Cav channel agonists are also capable of enhancing GLI1 mRNA levels in the human NK cell line NK-92 (a non-Hodgkin's lymphoma cell line, expressing only Cav1.3), NK-92 cells were stimulated using an anti-NKp46 mAb (5 μg/mL) for 4 hours in the presence of either 10 μM FPL 64176 or 100 μM Bay K8644. For reference, Bay K8644 is a structural analogue of nifedipine, and acts as an L-type Cav channel agonist. GLI1 expression was assessed using qRT-PCR. […] These observations confirm that the GLI1-inducing effect of Cav agonists is not merely restricted to the compound FPL 64176. In particular, in NK cells.

O=C(O)CN(CC(=O)O)c1ccccc1OCCOc1ccccc1N(CC(=O)O)CC(=O)O [BAPTA]
immune cell killing (EL-4 tumour cells): depleted

NC[C@H](CC(=O)O)c1ccc(Cl)cc1 [(R)-Baclofen]
Gli1 expression following TCR activation (Gli1 [1]; indicated concentrations, vs carrier control (FIG. 2)): little effect

COC(=O)C1=C(C)NC(C)=C([N+](=O)[O-])C1c1ccccc1C(F)(F)F (stereo not shown) [Bay K8644]
GLI1 mRNA levels (GLI1 [2]): increased (almost two-fold)

Cc1cccc(C)c1NC(=O)CN1CCCC1=O [Nefiracetam]
reduction of Gli1 expression (Gli1 [1]; vs carrier control (FIG. 2C)): around 50%
